# According to US9125862B2, “Methods for the treatment of Prader-Willi-like syndrome or non-organic failure to thrive (NOFITT) feeding disorder using an agonist of the oxytocin receptor” (Institut National de la Sante et de la Rechereche Medicale …, priority 2010, dated 2015):
# Assays:
# Format in all cases: in vivo, human
# [1] = test system: adult patients with PWS; experiment: Behavioural grid scores after a single intranasal administration, double-blind placebo-controlled pilot study; set-up: key to Change in behavioural scores: Depressive tendencies, Mean / Change in behavioural scores: Self-depreciation, Mean / Change in behavioural scores: Interest in love affair, Mean / Change in behavioural scores: Trust in others, Mean / Change in behavioural scores: Isolation tendencies, Mean / Change in behavioural scores: Sadness tendencies, Mean: grid score: negative = deterioration, positive = improvement
# Description: The inventors designed a double-blind randomised, placebo-controlled pilot study (ClinicalTrials.gov Identifier: NCT01038570) to be conducted in a dedicated PWS centre, where patients are regularly admitted for one month and live in a controlled environment. Patients know they have no free access to food but no doubt about the time and the content of meals. For each stay, 16 patients with PWS are admitted and take part in daily planned occupational and physical group activities. They also receive medical care as needed and psychological support. The 24 patients included in this study (16 females, 8 males, median age 28.5 years [18.7 to 43.6], median BMI 43 kg/m2 [19.4 to 67.4]) were stratified on gender and IQ (median IQ=51 [45 to 75]). […] Patients as well as parents or caregivers gave their written consent prior to entering the study. Exclusion criteria were an abnormal ECG and other severe cardiovascular problems. Patients were well known to the team. Each pair of patients of the same gender and same IQ range was evaluated the same day. The two patients of the pair received either OT or placebo in a double-blind randomisation. Patients were included in the study over the course of three series of stays.
# Each patient received a single intranasal administration of either placebo (saline solution) or OT (Syntocinon®/-Spray, Novartis, Basel, Switzerland) with three puffs per nostril (24 UI). The dose of 24 UI is the most frequently reported in the literature. […] This nurse knew neither the patients nor the study.
# (§1) The behaviour of the patients was carefully monitored, scored daily by the team psychologist, and documented on the case report form for the two days before drug administration, on the half-day following administration (early effects) and over the two days following drug administration (late effects). Both the staff and the rater were unaware of treatment status. There are currently no validated grids that evaluate the specific behavioural features of patients with PWS that they particularly wanted to study, i.e. tendencies towards isolation, sadness, and depression, self-depreciation, self-mutilation, conflicts with others, disruptive behaviour, interest in friendship, interest in love affairs, and trust of others. For this reason, they used an in-house grid developed by the caregivers and based on the routine observation of these patients in this dedicated centre for PWS with recognized expertise (17, 18). The criteria that the staff used to fill in the grid are explained in Table 1. The patients were well known to the team but the mean behavior status was re-evaluated during the first week of admission using the same grid. The behavioural features of the patients were scored as unchanged, moderately changed, or severely changed. For each criterion, a negative score reflected deterioration in the mean behavior status of the patient while a positive score reflected an improvement. Eating behaviour was also scored using three categories: usual, better than usual or worse, based on the analysis of each meal. The following were evaluated: amount of food intake per meal, amount of food requested per meal, duration of meal, and behaviour before/during/after the meal. To evaluate the early effect of OT, we analysed only the first meal after drug administration.
# [2] = test system: adult patients with PWS; experiment: Tests evaluating the understanding of social codes (Sally and Ann, Cartoons, RMET); conditions: 45 minutes after intranasal 24 UI
# Procedure: Forty-five minutes after the intranasal administration, three tests evaluating the understanding of social codes were administered, which lasted one hour. Conversely to the behavioural grid, there was no pre-administration evaluation. The Sally and Ann test assesses one's ability to understand simple situations by story-telling and pictures. Cartoons depicting more complex social situations designed for the evaluation of autistic children were also used (“Cartoons”, unpublished test). The “Reading the Mind in the Eyes” test (RMET) assesses the ability to read emotions from subtle affective facial expressions, especially in the eyes. A shortened test with 19 images from the 36-item revised version was chosen by the team psychologist. In these three tests, TOM is necessary to understand and analyse the social situations that are presented. Statistical analysis was performed using the Mann-Whiney test, the Wilcoxon test or the chi2 test.
# [3] = test system: adult patients with PWS; experiment: Eating behaviour scoring after intranasal administration
# Description: as §1, with “For this reason, they used an in-house grid developed by the caregivers and based on the routine observation of these patients in this dedicated centre for PWS with recognized expertise (17, 18). The criteria that the staff used to fill in the grid are explained in Table 1.” left out, “For each criterion, a negative score reflected deterioration in the mean behavior status of the patient while a positive score reflected an improvement.” left out
# [4] = 19 patients with deletions, P=0.05, data not shown
# [5] = Early effect (half-day following administration), intranasal 24 UI
# [6] = Late effect (mean of two days following administration), intranasal 24 UI
# [7] = Pre-administration (mean of two days before), OT group baseline
# [8] = pre-post difference (late effect score minus pre-administration score), OT group
compound,measurement,setting,value
CC[C@H](C)[C@@H]1NC(=O)[C@H](Cc2ccc(O)cc2)NC(=O)[C@@H](N)CSSC[C@@H](C(=O)N2CCC[C@H]2C(=O)N[C@@H](CC(C)C)C(=O)NCC(N)=O)NC(=O)[C@H](CC(N)=O)NC(=O)[C@H](CCC(N)=O)NC1=O [oxytocin],effect on disruptive behaviour,"[1]; 19 patients with deletions (9 OT, 10 placebo), P=0.04, data not shown",significant effect
same,interest in friendship,[1]; [4],more interest in friendship
same,trust in others,[1]; [4],trend towards more trust in others
same,sadness tendencies,"[1]; 19 patients with deletions, P=0.07, data not shown",fewer sadness tendencies
same,Depressive tendencies score,[1]; [5],0 ± 0
same,Disruptive behaviour score,[1]; [5],−0.167 ± 0.389
same,Interest in friendship score,[1]; [5],0.917 ± 0.515
same,Interest in love affairs score,[1]; [5],0.917 ± 0.515
same,Isolation tendencies score,[1]; [5],−0.083 ± 0.289
same,Sadness tendencies score,[1]; [5],−0.083 ± 0.289
same,Self-depreciation score,[1]; [5],−0.083 ± 0.289
same,Self-mutilation score,[1]; [5],−0.083 ± 0.289
same,Trust in others score,[1]; [5],0.833 ± 0.389
same,Conflicts with others score,[1]; [6],−0.111 ± 0.205
same,Depressive tendencies score,[1]; [6],0 ± 0
same,Interest in friendship score,[1]; [6],1.028 ± 0.234
same,Interest in love affairs score,[1]; [6],0.903 ± 0.411
same,Isolation tendencies score,[1]; [6],0 ± 0
same,Self-depreciation score,[1]; [6],0 ± 0
same,Self-mutilation score,[1]; [6],−0.083 ± 0.195
same,Conflicts with others score,[1]; [7],−0.319 ± 0.359
same,Depressive tendencies score,[1]; [7],−0.056 ± 0.192
same,Disruptive behaviour score,[1]; [7],−0.431 ± 0.344
same,Interest in friendship score,[1]; [7],0.875 ± 0.433
same,Interest in love affairs score,[1]; [7],0.972 ± 0.531
same,Isolation tendencies score,[1]; [7],−0.083 ± 0.289
same,Sadness tendencies score,[1]; [7],−0.194 ± 0.407
same,Self-depreciation score,[1]; [7],−0.056 ± 0.192
same,Self-mutilation score,[1]; [7],−0.278 ± 0.468
same,Trust in others score,[1]; [7],0.861 ± 0.332
same,disruptive behaviour,"[1]; excluding the seven patients on psychotropic medications, two days following administration, P=0.04, data not shown",less disruptive behaviour
same,"Change in behavioural scores: Conflicts with others, Mean",[1]; [8],0.208
same,"Change in behavioural scores: Depressive tendencies, Mean",[1]; [8],0.056
same,"Change in behavioural scores: Interest in friendship, Mean",[1]; [8],0.153
same,"Change in behavioural scores: Interest in love affair, Mean",[1]; [8],−0.069
same,"Change in behavioural scores: Isolation tendencies, Mean",[1]; [8],0.083
same,"Change in behavioural scores: Sadness tendencies, Mean",[1]; [8],0.111
same,"Change in behavioural scores: Self-depreciation, Mean",[1]; [8],0.056
same,"Change in behavioural scores: Trust in others, Mean",[1]; [8],0.167
same,patients who successfully completed the Sally and Ann test,"[2]; OT group n=12, placebo 50%, P=0.19",Eighty-three
same,Cartoons score,"[2]; OT vs placebo, P=0.56",3.75 (1-18)
same,total RMET score,"[2]; placebo 5.5 (1-11), P=0.18",7 (4-9)
same,"scores assessing eating behaviour, OT vs placebo group",[3]; intranasal 24 UI,No statistical difference
same,patients who did not feel hungry and slightly decreased their food intake,"[3]; over the two days following intranasal administration, five patients, placebo 10%",45%
